≈ marks a conversion by molar mass, not a printed value. Where a name gives a salt, the structure may show the parent alone.
What was measured:
S. Mutans = assay: quantitative serial dilution test, minimal inhibitory concentration; format: cell-based; conditions: Streptococcus mutans, brain-heart infusion broth, half strength, 37° C., 36 hours
Description: A quantitative serial dilution test may also be performed by the following procedure.
A 20 mg/ml solution of the compound to be tested is prepared in a standard brain-heart infusion broth medium which has been diluted with water to one-half standard strength. Serial dilutions are prepared by adding 1 ml of the solution to a test tube containing 9 ml of medium. Five milliliters of the resulting solution are then added to another test tube containing 5 ml of the medium. The resulting solution is then again diluted by the same procedure. Ordinarily one tenfold dilution and four twofold dilutions are made. The procedure can be continued if more dilute solutions are required. Each of the series of tubes containing solutions of the compounds to be assayed is inoculated with two drops of a heavy culture of the chosen microorganisms in the brain-heart infusion broth. The tubes are incubated at 37° C. for 36 hours and the most dilute solution showing no microbial growth is noted. The concentration of this solution is reported as the minimal inhibitory concentration (MIC).
The minimum inhibitory concentration of a number of the compounds of this invention with respect to the microorganism S. Mutans were determined by the procedure described above. Chlorhexidine diacetate a commercially successful antimicrobial was used as a control.

dental plaque = conditions: cited from earlier work
[1] = when swallowed; cited from earlier work
[2] = in vivo; cited from earlier work
[3] = at the prevailing pH of the mouth; cited from earlier work
[4] = adsorption to extracted enamel tooth surfaces, spectrophotometric; design: species or system human; conditions: after no more was removed; fresh portions of the solutions
Description: Absorption of the compounds of this invention to extracted, non-carious, unprepared enamel tooth surfaces was investigated by the following procedure. Extracted human teeth, having their roots coated with wax so that only the enamel crowns were exposed, were immersed in 10 ml portions of stirred aqueous solutions of the test compound having a concentration of 10 micrograms/milliliter. After 10 minutes, the teeth were removed and the amount of test compound removed from the solution by adsorption was determined spectrophotometrically. […] The adsorption of the compounds of this invention was compared with that of chlorhexidine and found to be substantially greater. […] After no more of the test compounds was removed from the solution by adsorption, the teeth were immersed in fresh portions of the solutions.

mice = assay: acute oral toxicity in mice; format: in vivo; conditions: 8 gms/Kg orally
Description: Acute oral toxicity of the compounds of this invention is determined in mice by the following procedure. The mice are fasted overnight, then formed into groups of 10 for testing. The animals in each group are fed a chosen dose and the dose is varied from group to group to cover a range of doses. The groups are then observed for a period of five days and the number of dead animals in each group is noted each day.

| MIC (S. Mutans) | Structure (SMILES) | also measured |
| --- | --- | --- |
| 0.078 µg/mL | N=C(NCCCCCCNC(=N)NC(=O)Nc1cccc(Cl)c1)NC(=O)Nc1cccc(Cl)c1 [1,6-bis(3-chlorophenylcarbamylguanidino)hexane diacetate] |  |
| 0.625 µg/mL (≈ 1.3 µM) | N=C(NCCCCNC(=N)NC(=O)Nc1ccc(Cl)cc1)NC(=O)Nc1ccc(Cl)cc1 [1,4-bis(4-chlorophenylcarbamylguanidino)butane] |  |
| 0.625 µg/mL (≈ 1.43 µM) | N=C(NCCCCCCNC(=N)NC(=O)Nc1ccccc1)NC(=O)Nc1ccccc1 [1,6-bis(phenylcarbamylguanidino)hexane] |  |
| 0.078 µg/mL | N=C(NCCCCCNC(=N)NC(=O)Nc1ccc(Cl)cc1)NC(=O)Nc1ccc(Cl)cc1 [1,5-bis(4-chlorophenylcarbamylguanidino)pentane monoacetate] |  |
| 0.312 µg/mL | N=C(NCCCCCCCNC(=N)NC(=O)Nc1ccc(Cl)cc1)NC(=O)Nc1ccc(Cl)cc1 [1,7-bis(4-chlorophenylcarbamylguanidino)heptane dihydrochloride] |  |
| 0.312 µg/mL | N=C(NCCCCCCNC(=N)NC(=O)Nc1cccc(C(F)(F)F)c1)NC(=O)Nc1cccc(C(F)(F)F)c1 [1,6-bis(3-trifluoromethylphenylcarbamylguanidino)hexane dihydrochloride] |  |

More lines, now with the values behind:

| Structure (SMILES) | MIC (S. Mutans) | also measured |
| --- | --- | --- |
| CCCCC(CC)CNC(=O)NC(=N)NCCCCCCNC(=N)NC(=O)NCC(CC)CCCC (centres unmarked) [1,6-bis(2-ethylhexylcarbamylguanidino)hexane] | 0.625 µg/mL (≈ 1.22 µM) |  |
| N=C(NCCCCCCNC(=N)NC(=O)Nc1ccc(Cl)cc1)NC(=O)Nc1ccc(Cl)cc1 [1,6-bis(4-chlorophenylcarbamylguanidino)hexane diacetate] | 0.078 µg/mL |  |
| N=C(NCCCCCCNC(=N)NC(=O)Nc1ccccc1Cl)NC(=O)Nc1ccccc1Cl [1,6-bis(2-chlorophenylcarbamylguanidino)hexane diacetate] | 0.312 µg/mL |  |
| N=C(NC(=O)NCCCCCCNC(=O)NC(=N)Nc1ccc(Cl)cc1)Nc1ccc(Cl)cc1 [1,6-Bis(p-chlorophenylamidinoureido)hexane] | 2.5 µg/mL (≈ 4.93 µM) |  |
| CCCCC(CC)CNC(=N)NC(=N)NCCCCCCNC(=N)NC(=N)NCC(CC)CCCC (centres unmarked) [alexidine, 1,6-bis(2-ethylhexylbiguanidino)hexane] |  | clinical antiplaque effect (dental plaque): clinically effected antiplaque agents; adsorption to gastrointestinal mucosa [1]: adsorbed to the gastrointestinal mucosa; local irritation of the oral mucosa and tongue [2]: produce local irritation of the oral mucosa and tongue; ionization state [3]: almost entirely cationic |
| [H]/N=C(\N/C(=N/[H])NCCCCCCNC(=N)NC(=N)Nc1ccc(Cl)cc1)Nc1ccc(Cl)cc1 [chlorhexidine, 1,6-bis-(p-chlorophenylbiguanidino)hexane] |  | further adsorption from fresh portions of solution [4]: No further adsorption; clinical antiplaque effect (dental plaque): clinically effected antiplaque agents; adsorption to gastrointestinal mucosa [1]: adsorbed to the gastrointestinal mucosa; local irritation of the oral mucosa and tongue [2]: produce local irritation of the oral mucosa and tongue; ionization state [3]: almost entirely cationic |
| N=C(NCCCCCCNC(=N)NC(=O)Nc1ccc(F)cc1)NC(=O)Nc1ccc(F)cc1 [1,6-bis(4-fluorophenylcarbamylguanidino)hexane diacetate] | 0.156 µg/mL |  |
| N=C(NCCCCCCNC(=N)NC(=O)Nc1ccc(Cl)cc1)NC(=O)Nc1ccc(Cl)cc1 [1,6-Bis-(p-chlorophenylcarbamylguanidino)hexane] |  | acute oral toxicity (mice): essentially atoxic |
| N=C(NCCCCCCNC(=N)NC(=O)Nc1ccc(Br)cc1)NC(=O)Nc1ccc(Br)cc1 [1,6-bis(4-bromophenylcarbamylguanidino)hexane diacetate] | 0.312 µg/mL |  |
| N=C(NCCCCCCNC(=N)NC(=N)Nc1ccc(Cl)cc1)NC(=N)Nc1ccc(Cl)cc1 [chlorhexidine diacetate, reference compound] | 0.078 µg/mL |  |

Source: patent US4022962A, “Carbamylguanidine antimicrobial compounds” (Cooper Laboratories, Inc., priority 1975, dated 1977)
